Experimental findings from patent US20250092001A1, “NOVEL EXCITATORY AMINO ACID GLUTAMATE TRANSPORT MODULATORS AND METHODS USING THE SAME” (Drexel University, priority 2022, published 2025) are described below.

Broadly, the AUC(0-inf) is total exposure, with the tail of the curve extrapolated. Broadly, the Cmax is the peak of the concentration-time curve. The Tmax is the time from dosing to the highest level.

The test system of series [1] is Drosophila model of Huntington's disease. The experiment in a line: Longevity assay. The series is classed as in vivo. The following applies: Huntington's disease model flies; up to about day 40. As to the method: The longevity assay was performed according to Romero et al., Neuron, 57(1), 27-40 and Linford et al., JoVE (Journal of Visualized Experiments), (71). Briefly, 100 adult flies from wild type and HTT phenotype (male and female) were collected in each designated tube and fed with food containing the specific concentration of drug. Every 2-3 days the flies were moved into new vials with fresh food and drug. Dead flies were removed and the number of flies alive during each change is noted. The tunes were maintained until the last available fly and the data was plotted as a survival curve. FIG. 8A illustrates certain aspects of a longevity assay. FIG. 8B depicts the results of the longevity assay. […] The survival rates of the flies were recorded over time.

Series [2] deals with Drosophila model of Huntington's Disease (Htt model). The experiment in a line: Larval locomotion assay in Drosophila Huntington's disease model. Particulars: third instar larvae; concentrations as low as two-fold below EC50 and one-fold below EC50. The series is classed as in vivo. An excerpt: FIG. 6A illustrate certain aspects of a locomotion assay used to assay the locomotive activities. […] FIGS. 6B and 6C depict the results of the locomotion assay results of wild-type Drosophila (“WT”), as well as Drosophila of a Huntington's disease model treated with vehicle (“Veh”) or with various concentrations of two exemplary GLT-1 modulators. […] The Drosophila Htt model is produced by crossing UAS-Htt([…]) male flies with elav-Gal4 virgin female flies. Both fly strains were purchased from Bloomington Drosophila Stock Center (BDSC, Indiana, USA). […] Locomotion assays were conducted by transferring the third instar larvae of flies to agar plates (FIG. 6A) and counting the number of grid lines crossed in 30 seconds.

Series [3] has as its system Drosophila model of Huntington's disease. The series can be described thus: Larval olfactory associative learning test. It is filed as in vivo. Particulars: Elav x Htt larvae; 3.53 nM GT467, […] GT511. On the procedure:
FIG. 7A illustrates certain aspects of a larval olfactory associative learning used to test learning and memory. In FIG. 7A, larvae were trained with either a reinforcer solution containing sucrose (“LIN/SUC”) or a control of distilled water (“LIN/DW”). The trained larvae were then transferred to a dish having test odorant placed on one side and a control on the opposite side. […] The ΔRI (difference between LIN/SUC and LIN/DW performance scores) were then calculated for the high performers (FIG. 7B), low performers (FIG. 7C) and non-performers (FIG. 7D). […] Referring to FIG. 7A, Drosophila larvae were trained with either a reinforcer solution containing sucrose (“LIN/SUC”) or a control of distilled water (“LIN/DW”). The trained larvae were then transferred to a dish having test odorant placed on one side and a control on the opposite side. The ΔRI were then calculated for the high performers (FIG. 7B), low performers (FIG. 7C) and non-performers (FIG. 7D).

A short description of series [4]: Pharmacokinetics of GT467 and GT511 in rats, plasma and brain (IV, IP, PO). Particulars: for AUC0-t: 0 to 24 hrs. The series is classed as in vivo, rat. As to the method:
Pharmacokinetics (PK) study for GT951 was conducted at Melior Discovery Services (Exton, PA). Fifteen male CD-1 mice 23-50 g was used for the study and the mice were housed 3 per cage. PK studies for GT467 and GT511 were conducted at Piramal Pharma solutions under approved protocols (Pune, India). One hundred and sixty-eight male Wistar rats were used for the study and housed 4 per cage. All animals were maintained on a standard 12 h light cycle and given free access to water and standard rodent chow. Food and water were available ad libitum. Animals were not fasted for any portion of the study and animals were acclimated to the animal care facility for seven days prior to the start of the experiment. The holding room and procedure room temperature was 21-23° C. and humidity was at 40-45% during the experiment (within the normal range of the care facility). All procedures were completed according to Institutional Animal Care and Use Committee (IACUC) approved protocols for housing and for PK studies.
Rats were dosed with the drug and blood and brain samples were collected at 0.5, 1, 2, 4, 8 and 24 h time points. Blood was collected via the sub-lingual vein under anesthesia into tubes containing Na2EDTA as an anticoagulant. Plasma fraction was separated by centrifuging the samples at 10,000 rpm for 5 min and the plasma was transferred to a cryo tube and stored at −80 C. Animals were euthanized and the brain was rapidly removed on ice and weighed. Brain was homogenized in Milli Q water and the homogenate was stored at −80 C until further use. Bioanalysis of the samples was performed using the SCIEX QTRAP 5500 LCMS/MS system with Phenomenex synergy C18 column and carbamazepine as internal standard. A methanol extraction procedure was used to precipitate the proteins in the sample. In addition to the internal standards, drug free plasma and brain samples were prepared for calibration and quantification standards. All samples were within the detectable range of the standard curves. 50 μl of the sample was added to 200 μl of the working solution of the internal standard and centrifuged for 5 min at 10,000 rpm. 60 μl of the supernatant was added to 140 μl of water and mixed well prior to transferring them for quantitative analysis on LCMS.
Specifically, rats were administered with GT467 or GT511 intraperitoneally (IP), intravenously (IV) or orally (PO). The concentration of the administered compounds measured at various timepoints in the plasma are depicted in FIGS. 4A and 4B, the concentrations of the administered compounds measured at various timepoints in the brain are depicted in FIGS. 5A and 5B.
Furthermore, pharmacokinetic parameters such as the peak concentration (Cmax), the time to reach the peak concentration (Tmax), the area under curve from time 0 to T (i.e., 24 hrs) (AUC0-t), the area under curve from time 0 to infinite (AUC0-∞), the half-life (t1/2), the oral clearance (CL/F), the volume of distribution of drug observed (Vz_F_obs), and the percentage of bioavailability (% Bioavailability) were also measured or calculated.

Series [5] relates to R6/2 mice (Huntington disease model). The series can be described thus: Novel object recognition assay. It is filed as in vivo, mouse. Particulars: 200 mg/kg, versus wild-type treated with vehicle.
Protocol: Referring to FIG. 9B, to test for memory impairment a novel object recognition assay was performed. A 44×44 cm square shaped open field arena was used to perform this test at week 12 and week 15. The behavioral evaluation was performed in 2 sets, each set having equal number of animals. The animals were subjected to habituation a day prior to the commencement of test for 5 min followed by familiarization with similar objects for 10 min and tested with different objects for 10 min on the following day. The behavior was recorded under dim light and low noise conditions using an overhead camera. Cumulative duration with both the objects, total object exploration (sec), distance travelled (cm) was quantified using the Noldus ethovision XT 14 software.
For series [6] the test system is unchanged. The series can be described thus: Open field locomotion test. It is filed as in vivo, mouse. The following applies: 200 mg/kg, versus wild-type treated with vehicle. On the procedure:
FIG. 9A depicts the results of a locomotion test. In the locomotion test of FIG. 9A, wildtype and R6/2 mice treated with vehicle or different doses of GTS467 (2, 4, and 10 mg/kg) or ceftriaxone (200 mg/kg) were subjected to the open field test to evaluate their locomotor abilities in a 44×44 cm and 43×43 cm square open field arena. Animals were placed individually in the open field arena and behavior was recorded for a period of 5 minutes under dim light and low noise conditions. Animal behavior was recorded using an overhead camera and the distance moved was recorded and quantified using the Noldus ethovision XT-14 software. FIG. 9B depicts the results of a memory task test. Referring to FIG. 9B, to test for memory impairment a novel object recognition assay was performed. A 44×44 cm square shaped open field arena was used to perform this test at week 12 and week 15. The behavioral evaluation was performed in 2 sets, each set having equal number of animals. […] The behavior was recorded under dim light and low noise conditions using an overhead camera. Cumulative duration with both the objects, total object exploration (sec), distance travelled (cm) was quantified using the Noldus ethovision XT 14 software. […]

[7] abbreviates: male, Wistar, rat plasma, IP 10 mg/kg.
Where [8] appears, read: male, Wistar, rat plasma, IV 5 mg/kg.
Setting [9] is: male, Wistar, rat plasma, PO 10 mg/kg.

Like-named read-outs stand apart in the source and are kept apart here.

As for `COc1ccc(NC(=O)C(=O)N2CCN(c3ccccc3)CC2)cc1` [GT511, N-(4-methoxyphenyl)-2-oxo-2-(4-phenylpiperazin-1-yl)acetamide], the Survival rate entry in series [1] is “significantly improved the survival rate”. Further, the “Locomotor ability (grid lines crossed in 30 seconds)” value in series [2] is reported as “restores the Huntington's disease model flies' locomotor ability”. Moreover, the “Olfactory learning performance (ΔRI)” value in series [3] is on record as “improved significantly”. Besides, the results for the total exposure AUC(0-inf) in series [4] (setting [7]), in series [4] (setting [8]) and in series [4] (setting [9]) were 1130 ng·h/mL, 995 ng·h/mL and 399 ng·h/mL, respectively. The highest concentration (Cmax) was found to be 450 ng/mL in series [4] (setting [7]), 567 ng/mL in series [4] (setting [8]) and 42.9 ng/mL in series [4] (setting [9]). The AUC0-t in series [4] (male, Wistar, rat plasma, IP 10 mg/kg, read-out: AUC0-t) was determined as 1070 ng·h/mL; in series [4] (male, Wistar, rat plasma, IV 5 mg/kg, read-out: AUC0-t), 919 ng·h/mL; in series [4] (male, Wistar, rat plasma, PO 10 mg/kg, read-out: AUC0-t) it was 322 ng·h/mL; in series [4] (rat brain, IP 10 mg/kg), 429.85 ng·h/g; in series [4] (rat brain, IV 5 mg/kg) it was 443.23 ng·h/g; in series [4] (rat brain, PO 10 mg/kg) it was 183.00 ng·h/g. Further, the CL/F in series [4] (male, Wistar, rat plasma, IP 10 mg/kg, read-out: CL/F (converted)) is 149 mL/min/kg; in series [4] (male, Wistar, rat plasma, PO 10 mg/kg, read-out: CL/F (converted)), 505 mL/min/kg; in series [4] (rat plasma, IV 5 mg/kg) it was 86.3097 mL/min/kg. Moreover, the “AUC0-∞” value turned out to be 467.11 ng·h/g in series [4] (rat brain, IP 10 mg/kg) and 483.13 ng·h/g in series [4] (rat brain, IV 5 mg/kg). Also, the Tmax in series [4] (rat brain, IP 10 mg/kg) is 0.50 h; in series [4] (rat brain, IV 5 mg/kg), 0.50 h; in series [4] (rat brain, PO 10 mg/kg) it was 1.38 h; in series [4] (rat plasma, IP 10 mg/kg), 0.63 h; in series [4] (rat plasma, IV 5 mg/kg) it was 0.50 h; in series [4] (rat plasma, PO 10 mg/kg), 3.25 h. Besides, the t1/2 was found to be 2.26 h in series [4] (rat brain, IP 10 mg/kg); 1.52 h in series [4] (rat brain, IV 5 mg/kg); 6.22 h in series [4] (rat plasma, IP 10 mg/kg); 6.08 h in series [4] (rat plasma, IV 5 mg/kg); 5.34 h in series [4] (rat plasma, PO 10 mg/kg). Further, the “% Bioavailability” value came out at 58.36% in series [4] (rat plasma, IP 10 mg/kg) and 17.51% in series [4] (rat plasma, PO 10 mg/kg). The Vz_F_obs in series [4] (rat plasma, IP 10 mg/kg) was 79.2212 L/kg; in series [4] (rat plasma, IV 5 mg/kg) it was 41.46389 L/kg; in series [4] (rat plasma, PO 10 mg/kg) it was 198.88289 L/kg. Also, the “Plasma concentration and brain concentration by route of administration” value in series [4] (rats, IP, IV, PO) is “higher plasma concentration and brain concentration than oral administration”.
Consider `CO/N=C(\C(=O)N[C@@H]1C(=O)N2C(C(=O)O)=C(CSc3nc(=O)c(=O)[nH]n3C)CS[C@H]12)c1csc(N)n1` [ceftriaxone, (6R,7R)-7-{[(2Z)-2-(2-amino-1,3-thiazol-4-yl)->2-(methoxyimino)acetyl]amino}-3-{[(2-methyl-5,6-dioxo-1,2,5,6-tetrahydro-1,2,4-triazin-3-yl)thio]methyl}-8-oxo-5-thia-1-azabicyclo[4.2.0]oct-2-ene-2-carboxylic acid, reference compound], for which the Recognition index result in series [5] is “scored significantly lower in recognition index”. In series [6], the Distance moved entry is “move significantly shorter distances”.
